Structures can show the parent of a compound that is named as a salt. A value given as a limit tells only on which side of the number the result lay.

What is called IC50 is the midpoint of a concentration-inhibition curve. Low values mean higher potency, high ones lower potency.

The test system of one test is KYSE450. Description: In vitro drug sensitivity test of cells, MTS method. The class given is cell-based. Particulars: culture time 72 h-216 h. The text has this:
(§1) 1640 medium (Gibco), DMEM medium (Hyclone), MEM medium (Gibco), […] medium (Gibco), DMEM/F12 medium (Gibco), L-15 medium (Hyclone), IMDM culture Base (Hyclone), non-essential amino acid (Gibco), sodium pyruvate (Gibco), insulin-transferrin-selenium additive TS-G, Shanghai Yuanpei Bio-tech), fetal bovine serum ([…]), trypsin digestion fluid (Jiangsu KGI), Cell Titer 96® AQueousOne Solution Cell Proliferation Assay (Promega), 96-well cell culture plate (Corning, Cat. No. 3599), Cisplatin (sigma, Cat. No. P4394), Olaparib (Selleck, Cat. No. S1060), Topotecan hydrochloride hydrate (Sigma, article number T2705), Paclitaxel (Dalian Meilun, article number MB1178). [table] […] Then the inventors adjusted the cell suspension concentration to 1×10^4/mL, added the cells to a 96 well plate as 100 ul per well, that is, 1000-2000 cells per well. Then the cells were incubated at 5% CO2, 37° C. overnight. The next day, after the cells at the bottom of the 96-well plate adhered, various drugs with different concentration gradients were added: […] After putting the 96-well plate into a CO2 incubator for 72 hours, the cell morphology and density in each were observed. For slow-growing cells, supplementation treatment was needed. For different cells, the culture time was between 72 h-216 h, and most of the cell culture time was between 144 h-168 h. […] Measure the absorbance (OD) of each well at 492 nm. Cell Viabilities was calculated by the formula: [formula]

The next test has as its system HEK-293. Described as above. The class given is cell-based. Conditions: culture time 72 h-216 h.
Description: as §1

In the next test the test system is HCC4006. Described as above. The class given is cell-based. Particulars: HCC4006 human lung adenocarcinoma cells, culture time 72 h-216 h.
Description: as §1

The subject of the next test is H2444. Described as above. The class given is cell-based. Particulars: culture time 72 h-216 h.
Description: as §1

The next test has as its system H1299. The description is as above. In kind it is cell-based. Particulars: culture time 72 h-216 h.
Description: as §1

A further test concerns HCC95. The description is as above. The class given is cell-based. Conditions: HCC95 human lung cancer cells, culture time 72 h-216 h.
Description: as §1

For another test, the system named is HT29. The test is described as above. The class given is cell-based. Particulars: culture time 72 h-216 h.
Description: as §1

Another test deals with H3122. The test is described as above. In kind it is cell-based. Conditions: culture time 72 h-216 h.
Description: as §1

Another test deals with T84. Described as above. The class given is cell-based. Conditions: T84 human colon cancer cells, culture time 72 h-216 h.
Description: as §1

Another test has as its system CAMA-1. The description is as above. Particulars: CAMA-1 human breast cancer cells, culture time 72 h-216 h. In kind it is cell-based.
Description: as §1

For a further test, the system named is HCC827. The test is described as above. The class given is cell-based. Conditions: HCC827 human lung adenocarcinoma cells, culture time 72 h-216 h.
Description: as §1

The subject of the next test is A549. The test is described as above. In kind it is cell-based. Particulars: A549 human non-small cell lung adenocarcinoma cells, culture time 72 h-216 h.
Description: as §1

Another test deals with MCF-7. Described as above. In kind it is cell-based. Particulars: culture time 72 h-216 h.
Description: as §1

A further test has as its system MDA-MB-436. The description is as above. Conditions: MDA-MB-436 human breast cancer cells, culture time 72 h-216 h. The class given is cell-based.
Description: as §1

A further test relates to Cal-120. The test is described as above. Conditions: Cal-120 human breast cancer cells, culture time 72 h-216 h. The class given is cell-based.
Description: as §1

A further test has as its system H2228. The test is described as above. The class given is cell-based. Conditions: culture time 72 h-216 h.
Description: as §1

Another test concerns H1975. The description is as above. The class given is cell-based. Conditions: culture time 72 h-216 h.
Description: as §1

A further test deals with HCC1937. The description is as above. In kind it is cell-based. Conditions: HCC1937 human breast cancer cells, culture time 72 h-216 h.
Description: as §1

For the next test, the system named is H520. The test is described as above. The class given is cell-based. Particulars: culture time 72 h-216 h.
Description: as §1

For a further test, the system named is H1650. The test is described as above. The class given is cell-based. Conditions: culture time 72 h-216 h.
Description: as §1

Another test deals with Capan-1. The description is as above. In kind it is cell-based. Particulars: Capan-1 human pancreatic cancer cells, culture time 72 h-216 h.
Description: as §1

The next test concerns PC-3. The description is as above. The class given is cell-based. Conditions: PC-3 human prostate cancer cells, culture time 72 h-216 h.
Description: as §1

The test system of a further test is TNBC patients. Conditions: CALGB 40603 study, combined carboplatin, cited from earlier work.
[1] abbreviates: KYSE-450, KYSE450 human esophageal cancer cells.
The mark [2] stands for this setting: HEK293, HEK-293 human embryonic kidney cells.
The mark [3] stands for this setting: NCI-H2444, H2444 human non-small cell lung cancer cells.
The mark [4] stands for this setting: NCI-H1299, H1299 human non-small cell lung cancer cells.
The mark [5] stands for this setting: HT-29, HT29 human colon cancer cells.
Where [6] appears, read: NCI-H3122, H3122 human non-small cell lung cancer cells.
The mark [7] stands for this setting: MCF7, MCF-7 human breast cancer cells.
Setting [8] is: NCI-H2228, H2228 human non-small cell lung adenocarcinoma cells.
Setting [9] is: NCI-H1975, H1975 human non-small cell lung adenocarcinoma cells.
[10] abbreviates: NCI-H520, H520 human non-small cell lung squamous cell.
Where [11] appears, read: NCI-H1650, H1650 human lung cancer cells.

With `CC[C@@]1(O)C(=O)OCc2c1cc1n(c2=O)Cc2cc3c(CN(C)C)c(O)ccc3nc2-1` [Topotecan, Topotecan hydrochloride hydrate], the IC50 was 0.0263 µM with KYSE450 (setting [1]); 0.018 µM in the test on HEK-293 (setting [2]); 0.0231 µM in the test on HCC4006; 0.00809 µM in the test with H2444 (setting [3]); 0.0287 µM with H1299 (setting [4]); 0.0467 µM in the test with HCC95. Further, the IC50 was 0.0156 µM in the test on HT29 (setting [5]); 0.02 µM in the test on H3122 (setting [6]); 0.00756 µM in the test with T84; 0.000907 µM in the test on CAMA-1; 0.0126 µM with HCC827; 0.25 µM in the test with A549. Also, the IC50 in the test with MCF-7 (setting [7]) was 0.00205 µM; in the test on MDA-MB-436 it was 0.00421 µM; in the test on Cal-120, 0.518 µM; in the test with H2228 (setting [8]) it was 0.0246 µM; in the test on H1975 (setting [9]), 0.25 µM; in the test with HCC1937, 0.0352 µM. Moreover, the IC50 turned out to be 0.00917 µM in the test on H520 (setting [10]), 0.125 µM with H1650 (setting [11]), 0.0158 µM in the test on Capan-1 and 0.0201 µM in the test on PC-3.

`CC(=O)O[C@H]1C(=O)[C@@]2(C)[C@H]([C@H](OC(=O)c3ccccc3)[C@]3(O)C[C@H](OC(=O)[C@H](O)[C@@H](NC(=O)c4ccccc4)c4ccccc4)C(C)=C1C3(C)C)[C@]1(OC(C)=O)CO[C@@H]1C[C@@H]2O` [Paclitaxel]: the IC50 with KYSE450 (setting [1]) amounted to 0.0115 µM; in the test with HEK-293 (setting [2]), 0.0103 µM; in the test with HCC4006, 0.00385 µM; in the test with H2444 (setting [3]), 0.0071 µM; in the test on H1299 (setting [4]), 0.0227 µM; in the test on HCC95, 0.00613 µM. The IC50 with HT29 (setting [5]) came out at 0.00305 µM; in the test with H3122 (setting [6]), 0.00848 µM; in the test with T84, 0.0321 µM; in the test on CAMA-1, 0.00416 µM; with HCC827, 0.00926 µM; with A549 it was 0.00586 µM. The IC50 in the test on MCF-7 (setting [7]) came out at 0.00484 µM; in the test with MDA-MB-436, 0.00967 µM; in the test on Cal-120, 0.0435 µM; in the test with H2228 (setting [8]), 0.0052 µM; in the test with H1975 (setting [9]), 0.007 µM; in the test on HCC1937, 0.009 µM. The IC50 turned out to be 0.00699 µM in the test with H520 (setting [10]), 0.00661 µM in the test on H1650 (setting [11]), 0.00699 µM with Capan-1 and 0.00427 µM with PC-3.

Turning to `O=C(c1cc(Cc2n[nH]c(=O)c3ccccc23)ccc1F)N1CCN(C(=O)C2CC2)CC1` [Olaparib], the IC50 was 130 µM in the test on KYSE450 (setting [1]); 5.88 µM in the test on HEK-293 (setting [2]); 9.14 µM in the test on HCC4006; 7.67 µM in the test on H2444 (setting [3]); 40 µM in the test on H1299 (setting [4]); 25.3 µM with HCC95. The IC50 in the test with HT29 (setting [5]) turned out to be 7.66 µM; in the test with H3122 (setting [6]) it was 16.9 µM; with T84, 5.85 µM; with CAMA-1 it was 8.33 µM; in the test with HCC827, 6.08 µM; in the test with A549, 80 µM. For the same compound, the IC50 in the test on MCF-7 (setting [7]) was 3.51 µM; in the test on MDA-MB-436, below 2.5 µM; with Cal-120 it was 160 µM; with H2228 (setting [8]) it was 10.8 µM; with H1975 (setting [9]) it was 80 µM; in the test with HCC1937, 10 µM. In addition, the IC50 came out at 2.19 µM with H520 (setting [10]), 75 µM with H1650 (setting [11]), 2.57 µM in the test with Capan-1 and 6.22 µM in the test on PC-3.

Consider carboplatin, for which, in the test with TNBC patients (vs 41% without, P=0.0029), the “breast/axillary pCR rates” value is 54%. In addition, the “breast pCR rates” value in the test on TNBC patients (vs 44% without, P=0.0018) is given as 60%.

`N.N.[Cl][Pt][Cl]` [Cisplatin, cis-diaminedichloroplatinum(II)]: the IC50 in the test with KYSE450 (KYSE450 human esophageal cancer cells) was 1.46 µM; with HEK-293 (HEK-293 human embryonic kidney cells), 0.465 µM; in the test on HCC4006, 1 µM; in the test on H2444 (H2444 human non-small cell lung cancer cells), 1.14 µM; in the test with H1299 (H1299 human non-small cell lung cancer cells), 2 µM; in the test on HCC95 it was 0.878 µM. For the same compound, the IC50 with HT29 (HT29 human colon cancer cells) was 0.692 µM; in the test on H3122 (H3122 human non-small cell lung cancer cells), 1.54 µM; in the test on T84, 0.433 µM; in the test with CAMA-1, 1.4 µM; in the test with HCC827, 0.626 µM; in the test on A549 it was 1 µM. The IC50 with MCF-7 (MCF-7 human breast cancer cells) is 0.894 µM; with MDA-MB-436 it was 0.139 µM; with Cal-120, 4.44 µM; with H2228 (H2228 human non-small cell lung adenocarcinoma cells), 0.514 µM; with H1975 (H1975 human non-small cell lung adenocarcinoma cells) it was 7 µM; in the test with HCC1937, 0.259 µM. Besides, the IC50 in the test on H520 (H520 human non-small cell lung squamous cell) was found to be 0.464 µM; in the test with H1650 (H1650 human lung cancer cells), 1.06 µM; with Capan-1, 0.214 µM; in the test with PC-3 it was 0.799 µM.
